{"source": "patent US11993588B2", "about": "“Crystalline forms of a MAGL inhibitor” (H. Lundbeck A/S, priority 2016, dated 2024)", "type_in_all_cases": "physicochemical", "key": {"[1]": {"experiment": "Solvent solubility screen for Compound 2", "conditions": "amorphous HCl salt; for solubility: 40 °C, thermodynamic from solid, read-out: Approximate Solubility", "description": "Approximately 10 mg of amorphous HCl salt (from 500 mg batch) was placed in each of 28 vials and 5 volume aliquots of the appropriate solvent systems were added to the appropriate vial. Between each addition, the mixture was checked for dissolution and if no dissolution was apparent, the mixture was heated to ca. 40° C. and checked again. This procedure was continued until dissolution was observed or 100 volumes of solvent had been added. Then a further addition of 100 volumes was added to samples which had not dissolved. If 200 volumes of solvent were added without dissolution of the material, solubility was calculated to be below this point."}, "[2]": {"experiment": "Gravimetric vapor sorption (GVS)", "conditions": "for weight uptake / hygroscopic nature: GVS; for weight uptake: at 90% RH; for Post-GVS analysis by XRPD (form change): after GVS sorption/desorption cycle", "description": "Approximately 10 mg of sample was placed into a mesh vapour sorption balance pan and loaded into an IGASorp Moisture Sorption Analyser balance by Hiden Analytical. The sample was subjected to a ramping profile from 40-90% relative humidity (RH) at 10% increments, maintaining the sample at each step until a stable weight had been achieved (98% step completion). After completion of the sorption cycle, the sample was dried using the same procedure to 0% RH, and finally taken back to the starting point of 40% RH. The weight change during the sorption/desorption cycles were plotted, allowing for the hygroscopic nature of the sample to be determined."}, "[3]": {"experiment": "Dynamic vapor sorption (DVS)", "description": "Approximately 10 mg of sample was placed into a mesh vapour sorption balance pan and loaded into a DVS-1 dynamic vapour sorption balance by Surface Measurement Systems. The sample was subjected to a ramping profile from 40-90% relative humidity (RH) at 10% increments, maintaining the sample at each step until a stable weight had been achieved (99.5% step completion). After completion of the sorption cycle, the sample was dried using the same procedure to 0% RH and then a second sorption cycle back to 40% RH. The weight changes during the sorption/desorption cycles were plotted, allowing for the hygroscopic nature of the sample to be determined. XRPD analysis was then carried out on any solid retained."}, "7-day stability testing": {"experiment": "7-day stability testing", "description": "(§1) Form 2 of Compound 2 was scaled up in two solvents. Material underwent 7-day stability testing and/or aqueous solubility assessment. The 7-day stability testing was conducted as follows. Material was exposed to environments of 40° C./75% RH, ambient light and 80° C. for 7 days and the resulting solids analysed by XRPD to determine if any changes had occurred, and by HPLC to determine purity. The aqueous solubility assessment was conducted as follows. A slurry was created in deionised water (5.1 mg of Form 2 and 300 μL of water) and shaken for ca. 24 hours at ambient temperature (ca. 22° C.). The initial pH and final pH were measured. The resulting mixture was then isolated by centrifuge filtration, and the solution obtained analysed by HPLC to calculate the concentration of material dissolved. Remaining solid was analysed by XRPD to determine if any changes had occurred on slurrying."}, "[4]": {"experiment": "Aqueous solubility assessment", "description": "as §1"}, "[5]": {"experiment": "Solubility measurement in t-BME", "conditions": "organic solvent or mixture, thermodynamic from solid; solvent addition method, 10 mg sample, up to 100 mL t-BME", "description": "Solubility of Form 1 of Compound 2 was measured using the solvent addition method as described in Example 14 on 10 mg of sample. t-BME was added in 1 mL aliquots up to 10 mL, then in 5 mL and 10 mL aliquots up to a total volume of 100 mL."}, "[6]": {"experiment": "Competitive slurrying of Form 1 and 2 mixtures", "conditions": "50:50 Form 1 and 2 slurries in acetone, ethyl acetate, methylethyl ketone, 2-propanol; 60° C. and ambient, ca. 48 hours", "description": "Four solvents (acetone, ethyl acetate, methylethyl ketone, and 2-propanol) were chosen for competitive slurrying. Saturated solutions were prepared of Form 1 in the chosen solvents and added to 20 mg of 50:50 Form 1 and 2 mixtures to create slurries. The slurries were shaken at 60° C. and ambient temperature for ca. 48 hours. Solids were then isolated by centrifuge filtration and analysed by XRPD."}, "[7]": {"experiment": "Heating to 140° C., cooling and XRPD", "conditions": "heated to 140° C. and allowed to cool", "description": "Material from Compound 2 (Form 1) was also heated to 140° C. and allowed to cool. The material was analysed by XRPD (FIG. 12), to determine any form change, which could be consistent with a solid-solid transition."}, "[8]": {"conditions": "listed as Form 1 of Compound 2, mono-HCl salt"}, "[9]": {"conditions": "listed as Form 2 (Compound 2), mono-HCl salt"}}, "data": [{"smiles": "Cl.O=C(OC(C(F)(F)F)C(F)(F)F)N1CCN(Cc2ccc(C(F)(F)F)cc2N2CCCC2)CC1", "note": "[Compound 2, 1,1,1,3,3,3-hexafluoropropan-2-yl 4-(2-(pyrrolidin-1-yl)-4-(trifluoromethyl)benzyl)piperazine-1-carboxylate mono-HCl salt]", "values": [{"measurement": "solubility", "setting": "[1]; aqueous with cosolvent or surfactant or cyclodextrin, 2-Propanol:water (50%), partial dissolution", "value": "< 5", "unit": "mg/mL"}, {"measurement": "solubility", "setting": "[1]; aqueous with cosolvent or surfactant or cyclodextrin, Acetone:water (50%), partial dissolution", "value": "< 5", "unit": "mg/mL"}, {"measurement": "solubility", "setting": "[1]; aqueous with cosolvent or surfactant or cyclodextrin, Methanol:water (50%)", "value": "< 5", "unit": "mg/mL"}, {"measurement": "solubility", "setting": "[1]; organic solvent or mixture, 1,4-Dioxane", "value": 5, "unit": "mg/mL"}, {"measurement": "solubility", "setting": "[1]; organic solvent or mixture, 1-Butanol", "value": "< 5", "unit": "mg/mL"}, {"measurement": "solubility", "setting": "[1]; organic solvent or mixture, 2-Ethoxyethanol, precipitated overnight", "value": 49, "unit": "mg/mL"}, {"measurement": "solubility", "setting": "[1]; organic solvent or mixture, 2-Methyl tetrahydrofuran", "value": "< 5", "unit": "mg/mL"}, {"measurement": "solubility", "setting": "[1]; organic solvent or mixture, 2-Propanol", "value": 5, "unit": "mg/mL"}, {"measurement": "solubility", "setting": "[1]; organic solvent or mixture, Acetone", "value": 40, "unit": "mg/mL"}, {"measurement": "solubility", "setting": "[1]; organic solvent or mixture, Acetonitrile", "value": 40, "unit": "mg/mL"}, {"measurement": "solubility", "setting": "[1]; organic solvent or mixture, Anisole, partial dissolution", "value": "< 5", "unit": "mg/mL"}, {"measurement": "solubility", "setting": "[1]; organic solvent or mixture, Dichloromethane, precipitated overnight", "value": 70, "unit": "mg/mL"}, {"measurement": "solubility", "setting": "[1]; organic solvent or mixture, Diisopropyl Ether", "value": "< 5", "unit": "mg/mL"}, {"measurement": "solubility", "setting": "[1]; organic solvent or mixture, Dimethylacetamide", "value": 99, "unit": "mg/mL"}, {"measurement": "solubility", "setting": "[1]; organic solvent or mixture, Dimethylformamide", "value": 99, "unit": "mg/mL"}, {"measurement": "solubility", "setting": "[1]; organic solvent or mixture, Dimethylsulfoxide", "value": 66, "unit": "mg/mL"}, {"measurement": "solubility", "setting": "[1]; organic solvent or mixture, Ethanol", "value": 33, "unit": "mg/mL"}, {"measurement": "solubility", "setting": "[1]; organic solvent or mixture, Ethyl acetate", "value": 5, "unit": "mg/mL"}, {"measurement": "solubility", "setting": "[1]; organic solvent or mixture, Isopropyl acetate", "value": "< 5", "unit": "mg/mL"}, {"measurement": "solubility", "setting": "[1]; organic solvent or mixture, Methanol", "value": 101, "unit": "mg/mL"}, {"measurement": "solubility", "setting": "[1]; organic solvent or mixture, Methyl isobutyl ketone, partial dissolution", "value": "< 5", "unit": "mg/mL"}, {"measurement": "solubility", "setting": "[1]; organic solvent or mixture, Methylethyl ketone", "value": 28, "unit": "mg/mL"}, {"measurement": "solubility", "setting": "[1]; organic solvent or mixture, N-Methyl-2-pyrrolidone", "value": 101, "unit": "mg/mL"}, {"measurement": "solubility", "setting": "[1]; organic solvent or mixture, Tetrahydrofuran, precipitated overnight", "value": 25, "unit": "mg/mL"}, {"measurement": "solubility", "setting": "[1]; organic solvent or mixture, Toluene", "value": "< 5", "unit": "mg/mL"}, {"measurement": "solubility", "setting": "[1]; organic solvent or mixture, tert-Amyl alcohol", "value": "< 5", "unit": "mg/mL"}, {"measurement": "solubility", "setting": "[1]; organic solvent or mixture, tert-Butylmethyl ether", "value": "< 5", "unit": "mg/mL"}, {"measurement": "solubility", "setting": "[1]; Water", "value": "< 5", "unit": "mg/mL"}, {"measurement": "concentration at which dissolution was initially observed", "setting": "[1]; Acetone:water (50%), precipitated after ca. 2 h", "value": 18000, "unit": "µg/mL"}, {"measurement": "weight uptake", "setting": "[2]; [8]", "value": "< 0.1", "unit": "%"}, {"measurement": "weight uptake", "setting": "[2]; [9]", "value": "< 0.08", "unit": "%"}, {"measurement": "hygroscopic nature", "setting": "[2]; [8]", "value": "very non-hygroscopic"}, {"measurement": "hygroscopic nature", "setting": "[2]; [9]", "value": "(very) non-hygroscopic"}, {"measurement": "Post-GVS analysis by XRPD (form change)", "setting": "[2]; [8]", "value": "remain unchanged"}, {"measurement": "Post-GVS analysis by XRPD (form change)", "setting": "[2]; [9]", "value": "remained the same crystalline form"}, {"measurement": "hygroscopic nature", "setting": "[3]; DVS", "value": "non-hygroscopic"}, {"measurement": "total uptake", "setting": "[3]; DVS, at 90% RH", "value": "< 0.12", "unit": "%"}, {"measurement": "Post-DVS XRPD analysis (form change)", "setting": "[3]; after DVS cycle", "value": "remain the same crystalline form"}, {"measurement": "HPLC purity after stability testing", "setting": "7-day stability testing; 40° C./75% RH for 7 days", "value": "> 99.9", "unit": "%"}, {"measurement": "solid form by XRPD after stability testing", "setting": "7-day stability testing; 40° C./75% RH, ambient light and 80° C. for 7 days", "value": "remain the same form"}, {"measurement": "HPLC purity after stability testing", "setting": "7-day stability testing; 80° C. for 7 days", "value": 99.9, "unit": "%"}, {"measurement": "HPLC purity after stability testing", "setting": "7-day stability testing; ambient light / ambient conditions for 7 days", "value": "> 99.9", "unit": "%"}, {"measurement": "dissociation of the salt in water", "setting": "[4]; [8]", "value": "dissociates readily to the free base"}, {"measurement": "dissociation of the salt in water", "setting": "[4]; [9]", "value": "dissociate to the free base"}, {"measurement": "solubility at 24 h", "setting": "[4]; thermodynamic from solid, slurry in deionised water, ca. 24 hours, ambient (ca. 22° C.), initial pH 1.87, final pH 1.68", "value": 0.5, "unit": "mg/mL"}, {"measurement": "solubility", "setting": "[5]", "value": "< 0.1", "unit": "mg/mL"}, {"measurement": "relative thermodynamic stability of polymorphs", "setting": "[6]", "value": "thermodynamically more stable than Form 1"}, {"measurement": "form change by XRPD after heating", "setting": "[7]", "value": "remain unchanged"}]}]}
